Blank lines part the entries; values can stand above or below the compound they belong to.
Key:
[1] = target: T1, 15-sLOX (Glycine max, UniProt P08170); test: Kinetics parameters of 15s-LOX (UV 270 nm, Michaelis-Menten); assay type: biochemical, Glycine max (soybean)
T1 sequence (P08170 1-839): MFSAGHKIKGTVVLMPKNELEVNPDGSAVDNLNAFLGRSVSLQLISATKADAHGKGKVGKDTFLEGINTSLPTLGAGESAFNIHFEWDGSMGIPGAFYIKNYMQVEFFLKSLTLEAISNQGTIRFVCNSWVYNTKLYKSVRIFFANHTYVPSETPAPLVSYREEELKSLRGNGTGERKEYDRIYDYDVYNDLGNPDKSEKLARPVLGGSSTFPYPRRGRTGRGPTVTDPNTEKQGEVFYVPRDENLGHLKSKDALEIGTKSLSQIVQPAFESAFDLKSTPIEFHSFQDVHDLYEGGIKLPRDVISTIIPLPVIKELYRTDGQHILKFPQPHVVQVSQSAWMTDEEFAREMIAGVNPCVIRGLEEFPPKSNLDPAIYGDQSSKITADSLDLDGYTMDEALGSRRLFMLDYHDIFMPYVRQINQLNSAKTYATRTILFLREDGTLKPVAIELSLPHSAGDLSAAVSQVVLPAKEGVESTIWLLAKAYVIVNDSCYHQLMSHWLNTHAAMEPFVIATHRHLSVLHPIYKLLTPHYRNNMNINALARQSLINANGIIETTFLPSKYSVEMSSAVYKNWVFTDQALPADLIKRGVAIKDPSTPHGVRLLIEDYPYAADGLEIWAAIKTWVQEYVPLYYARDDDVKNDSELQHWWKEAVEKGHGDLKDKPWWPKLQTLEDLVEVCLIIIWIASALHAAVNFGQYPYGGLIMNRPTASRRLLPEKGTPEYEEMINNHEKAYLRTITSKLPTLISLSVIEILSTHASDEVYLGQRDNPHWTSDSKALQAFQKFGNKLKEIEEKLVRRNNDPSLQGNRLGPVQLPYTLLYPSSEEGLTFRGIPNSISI
Protocol: The activity of 15-sLOX was monitored on a Beckman Coulter DU730 Life Sciences UV-visible spectrometer at a wavelength of 270 nm monitoring the conjugated triene structure in the dihydroxylation products. For the measurements a reaction mixture of DHA or deuterated DHA (0.02 mM; 0.04 mM; 0.1 mM and 0.2 mM) was prepared in 750 µL sodium borate buffer (50 mM, pH 9) by ultrasonification for 10 s. The reaction was subsequently initiated by the addition of 10 µL 15-sLOX (4 mg/mL) to make a total volume of 760 µL in a Hellma CEL2056 quartz cuvette with 1 cm path length (20 °C). The initial reaction rates (V(0)), derived from the recorded UV-absorbance using the law of Lambert-Beer (molar extinction coefficient = 40,000), were plotted against the respective DHA concentrations and fitted to Michaelis-Menten kinetics in GraphPad Prism 7.0. All V(0) values were determined in triplicate and the average of three independent experiments was plotted against the substrate concentrations to yield Michaelis-Menten kinetics.

[2] = target: T1, 15-sLOX; test: LC-MS/MS of 15s-LOX oxidized samples (product profile); assay type: biochemical, Glycine max (soybean); conditions: 0.1 mM substrate, 30 min reaction, room temperature
Protocol: In order to gain insights on the nature of the produced metabolites, LC-MS/MS analysis of the reaction products were carried out. To this end, the respective DHA variants (0.1 mM) were incubated in a 2 mL eppendorf tube with 10 µL 15-sLOX (4 mg/mL) in sodium borate buffer (50 mM, pH 9) for 30 min at room temperature and the reaction quenched by the addition of cold MeOH (760 µL). The hydroperoxides were reduced with the addition of aq. SnCl2 (50 µL, 5 mg/mL) and subsequently the mixture was centrifuged (16,100 ×g for 5 min). Water (2 mL) was added to the supernatant, followed by the dropwise addition of glacial acetic acid (40 µL). The products were purified by SPE using SepPak 200 mg C18 cartridges (3CC), according to published protocols. The methyl formate eluates were evaporated to dryness, dissolved in MeOH (0.5 mL) and stored at −80 °C until analysis. The resulting solution was diluted 1000 times with MeOH for LC-MS/MS measurements. To 120 µL water, 72 µL of MeOH, 4 µL of the diluted solution and 4 µL of an internal standard (15-HETE-d8, Leukotriene LTB4-d4 and DHA-d5) was added. The samples were loaded in a SIL-30AC autosampler and the analytes separated on a Kinetex 1.7 µm C18 100Å, 50 × 2.1 mm LC column as described. The detection of DHA metabolites was performed in selected ion monitoring mode using several traces in order to take the eventual loss of a deuterium atom into account. The following traces were used: m/z 327.2, 343.2, 359.2 and 375.2 for DHA and its metabolites, m/z 327.2, 328.2, 329.2, 344.2, 345.2, 360.2, 361.2, 376.2, 377.2 for D2-DHA, m/z 331.2, 345.3, 346.2, 361.2, 362.3, 363.2, 377.2, 378.2 and 379.2 for D4-DHA and m/z 337.2, 352.2, 353.2, 367.2, 368.2, 369.2, 383.2, 384.2 and 385.2 for D10-DHA. Tandem mass spectra were recorded as product ion scans. Quantification of the metabolites was done by calculating the area ratio between the analyte and the internal standard (DHA-d5 for non-hydroxylated, 15-HETE-d8 for mono-hydroxylated and LTB4-d4 for di-hydroxylated derivatives) using Multiquant version 3.0.2.

[3] = system: ARPE-19 cells; test: cells; assay type: cell-based; conditions: ARPE-19, H2O2 treatment 600 µM in 1% FBSM
Protocol: ARPE-19 cells were obtained from ATCC, and maintained in Dulbecco’s Modified Eagle’s Medium (DMEM)/Ham F12 (GIBCO) containing 10% (v/v) fetal bovine serum (FBS) and 1% (v/v) penicillin/streptomycin under a humidified (95%)/CO2 (5%) atmosphere at 37 °C. For splitting and experiments, cells were dissociated with 0.25% trypsin-EDTA, re-suspended in the culture medium and then plated at 1–3 × 10^5 cells/mL. Cells were cultured and used up to a maximum of 10 passages.
(§1) Cell viability was determined by the MTT colorimetric assay. Cells were incubated for 2 h with MTT reagent (0.5 mg/mL). The absorbance at 570 nm and 655 nm of individual wells was measured using a microplate reader (BioRad 550). The percentage of viable cells was calculated as [(OD570 sample – OD655 sample)/(OD570 control – OD655 control)] × 100%.
ARPE-19 cells were plated into 96-well plates (3 × 10^4 cells/well) and cultured for 24 h to reach confluence before DHA treatment. The cells were treated in medium with 1% FBS (1% FBSM), or with H2O2 prepared in medium with FBS (1%, v/v) to a final concentration of 600 μM. Cells were then treated with DHA, D2-DHA and D4-DHA, at different concentrations (0–80 μm) for 24 h. Control cells were incubated with DMSO (0.2%). After 4 h, cell viability was determined in triplicate using the MTT colorimetric assay. Results were expressed in percentage of viable cells normalized with control conditions in the absence of PUFA and H2O2 stress.
Sigmoidal doses-responses linked to the toxicity were obtained using GraphPad prism software, allowing to calculate IC50 values described as the concentration leading to 50% of cell viability.

[4] = system: ARPE-19 cells; test: Protection of lipophenols against all-trans-retinal (MTT cell viability); assay type: cell-based; conditions: ARPE-19, pretreatment 80 µM 1 h, trans-retinal 25 µM 4 h, MTT after 20 h
Protocol: as §1
ARPE-19 cells were plated into 96-well plates (3 × 10^4 cells/well) and cultured for 24 h to reach confluence before lipophenol treatment. Cells were treated with serum free medium containing lipophenols at different concentrations (0–80 μM) for 1 h. Then all-trans-retinal was added to a final concentration of 25 μM for 4 h (in DMF), before rinsing with medium. Cell viability was determined 16–20 h later, in triplicate samples, using the MTT colorimetric assay. Control cells were incubated with DMSO (0.2%) and DMF (0.14%). The data are expressed as the percentage of untreated cells (CTL, without all-trans-retinal).

[5] = system: ARPE-19 cells; test: Lipid peroxidation status with C11-Bodipy581/591 probe (FACS) under oxidative conditions; assay type: cell-based; conditions: ARPE-19, 50 µM for 24 h
Protocol: ARPE-19 cells were plated into 2 cm^2 wells (2 × 10^5 cells/well) and cultured for 24 h to reach confluence before PUFA or lipophenol treatment. The cell cultures were treated with 1% FBSM containing tested compounds (deuterated DHAs or deuterated lipophenols) at 50 μM for 24 h and then rinsed with media before the incubation of 5 µM C11-Bodipy^581/591 for 30 min. Then, the cells were rinsed and treated with the different stressors, corresponding to different protocols. For chemical stress the cells were incubated with 400 µM of H2O2 during 24 h followed by FACS analysis. For photobleaching stress, the cells were exposed to a white LED lamp with an intensity of 5000 lux at room temperature during 1 h followed by the FACS analysis.
FACS was performed with the BD Accuri C6 Flow Cytometer and BD Accuri C6 Software for data acquisition (BD Biosciences). This flow cytometer is equipped with an excitation laser at 488 nm, and a fluorescence detector FL1 533/30 nm. Data were collected to 10,000 events for each sample using a flow rate of 35 µL/min. Parameters obtained for data analysis included: cell size from the forward scatter (FSC), granularity from the side scatter (SSC) and the green fluorescence of the stained cells with C11-Bodipy^581/591.
First the SSC-A versus FSC-A dot-plot was used to gate the cellular population and remove the cellular debris. Then the SSC-A versus SSC-H dot-plot was used to remove cell doublets in the previous gate to give a final gate. The cellular population in the last gate designed was plotted on count versus log green fluorescence to give the fluorescence mean intensity of FL1. The mean FL1 values were normalized to the cells only stained with C11-Bodipy^581/591.

[6] = serum starvation (1% FBSM) 48 h

Structure (SMILES): CC/C=C\C/C=C\C/C=C\C/C=C\C/C=C\C/C=C\CCC(=O)O [D10-DHA]
Km ([1]; 15s-LOX, substrate 0.02-0.2 mM, borate buffer pH 9, 20 °C, 270 nm): 3.27 µM

pre-dominant product of 15-sLOX oxidation (LC-MS) [2]: vast excess obtained for 17S-HDHA
fold decrease in the Vmax value ([1]; 15s-LOX, compared with the other DHAs): more than 10 fold
15s-LOX activity for the double hydroxylation product ([1]; monitored at 270 nm): significantly reduced activity
Structure (SMILES): [2H]C([2H])(/C=C\CC)/C=C\C([2H])([2H])/C=C\C([2H])([2H])/C=C\C([2H])([2H])/C=C\C([2H])([2H])/C=C\CCC(=O)O [D10-DHA]

Structure (SMILES): OO [H2O2, Hydrogen peroxide, reference compound]
cell mortality [3]: 60–70%

Structure (SMILES): [2H]C([2H])(/C=C\C/C=C\C/C=C\C/C=C\C/C=C\CC)/C=C\CCC(=O)Oc1cc(O)cc(OC(C)C)c1 [IP-D2-DHA, phloroglucinol-OiPr-O-(6,6-D2)-DHA]
increase in cell viability against all-trans-retinal [4]: 52%
lipid peroxidation status (C11-BODIPY fluorescence) [5, 6]: slight but significant decrease in lipid peroxidation

Structure (SMILES): [2H]C([2H])(C=CCC=CCC=CCC=CCC)C=CC([2H])([2H])C=CCCC(=O)Oc1cc(O)cc(OC(C)C)c1 [IP-D4-DHA, phloroglucinol-OiPr-O-(6,6,9,9-D4)-DHA]
increase in cell viability against all-trans-retinal [4]: 47%
lipid peroxidation status (C11-BODIPY fluorescence) ([5]; serum starvation (1% FBSM) 24 h): decreased lipid peroxidation compared to IP-DHA and IP-D2-DHA
lipid peroxidation status (C11-BODIPY fluorescence) [5, 6]: slight but significant decrease in lipid peroxidation
lipid peroxidation status (C11-BODIPY fluorescence) ([5]; then H2O2 400 µM 24 h): decreased the lipid peroxidation status relative to IP-DHA and IP-D2-DHA
lipid peroxidation status (C11-BODIPY fluorescence) ([5]; then photobleaching (white light, 5000 lux, 1 h)): reduction of lipid oxidation

Structure (SMILES): CC/C=C\C/C=C\C/C=C\C/C=C\C/C=C\C/C=C\CCC(=O)Oc1cc(O)cc(OC(C)C)c1 [IP-DHA]
increase in cell viability against all-trans-retinal [4]: 42%
